Assay in all cases: growth of human tumour cells (NCI), 48 h
The test system of assay [1] is ACHN renal.
Assay [2] concerns OVCAR-5 ovarian.
Assay [3] concerns MALME-3M melanoma.
Assay [4] has as its system COLO 205 colon.
Assay [5] deals with SNB-75 CNS.
Assay [6] deals with SW-620 colon.
The test system of assay [7] is 786-0 renal.
Assay [8] concerns BT-549 breast.
Assay [9] deals with PC-3 prostate.
In assay [10] the test system is MDA-MB-435.

Among the data in PubChem BioAssay (NCI) are TGI and GI50 values, retold here.

“And” between values parts separate entries of the source, which are not always exact repeats. Equal entries are not always repeated.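 Each compound was tested at five concentrations against cells in 96-well plates for 48 hours. At the GI50, growth is halved. TGI marks complete inhibition of growth.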

`CSc1cnc2ccccc2c1Sc1c[nH]c2ccccc2c1=O`: the TGI in assay [1] was 52.5 µM; in assay [2] it was 59.4 µM; in assay [3], 37.6 µM; in assay [4], 22.7 µM; in [5], 10.3 µM; in assay [6] it was more than 32.3 µM. In assay [7], the TGI was determined as 34.8 µM.
Consider `CC1=C(C(=O)Nc2ccccc2)C(c2ccccc2Cl)C(C(=O)Nc2ccccc2)=C(C)N1`, for which the TGI in assay [1] came to 94.1 µM; in [2] it was 61.2 µM; in [3] it was 39.7 µM; in assay [4], 34.3 µM; in assay [5], 76.4 µM; in [6], 76.2 µM. The same compound registered a TGI in assay [7] of 42.1 µM.
With `Cc1cc(-c2c(F)cc3c4nn([C@H]5CC[C@@H](N(C)C)CC5)c(=O)c-4cn(C4CC4)c3c2F)cc(C)n1`, the GI50 in [1] is 0.0219 µM; in assay [3] it was 0.0318 µM; in assay [4], 0.0366 µM; in [5] it was 0.158 µM; in assay [7], 0.0202 µM. The TGI in assay [1] was 0.171 µM and 0.928 µM; in [2] it was 14.2 µM; in [3] it was 0.208 µM and 1.67 µM; in assay [4] it was 0.0936 µM and 0.889 µM; in [5], 0.19 µM and 0.54 µM; in assay [6], 1.36 µM. In addition, the TGI in assay [8] is 10.8 µM; in assay [9], more than 100 µM; in [7], 0.0526 µM and 0.363 µM.
Take `O=C(O)CCNS(=O)(=O)c1ccc2ccccc2c1`: the TGI in assay [1], in [2], in assay [3], in [4], in assay [5] and in assay [6] was more than 100 µM each time. In addition, the TGI in [7] was more than 100 µM.
Consider `CC1=C(SC#N)S(=O)(=O)N(c2ccccc2)C(C)=C1SC#N`, for which the TGI is more than 100 µM in [1]; more than 100 µM in assay [2]; more than 100 µM in assay [3]; 63.9 µM in assay [5]; more than 100 µM in assay [6]; more than 100 µM in assay [7].
Consider `COc1ccc(C2=Nc3ccccc3SC(C)C2)cc1OC` (stereo unspecified), for which the TGI was 58.1 µM in assay [1]; 52.6 µM in assay [2]; 42.8 µM in assay [3]; 40.6 µM in assay [4]; 35 µM in assay [5]; 18.6 µM in assay [6]. Besides, the TGI in [7] was 30.2 µM.
For `CCOC(=O)C1=C(O)c2ccc(C)cc2C(=O)C1=O`, the TGI in [1], in assay [2], in assay [3], in assay [4], in assay [5] and in assay [6] was more than 100 µM throughout. The compound further gave a TGI in assay [7] of more than 100 µM.
Regarding `O=C(C(=O)n1ncc(Cl)c(Cl)c1=O)n1ncc(Cl)c(Cl)c1=O`, the TGI was 32.9 µM in [1]; more than 100 µM in assay [2]; 48.1 µM in assay [3]; 29 µM in assay [4]; 97.2 µM in assay [5]; 42.7 µM in assay [6]. In assay [7], the TGI came to 44.6 µM.
As for `CCOC(=O)/C(=C/c1cccc(Cl)c1)N(CC)CC`, the TGI in assay [1], in assay [2], in [3], in [4], in assay [5] and in assay [6] was more than 100 µM in each case. The compound further gave a TGI in [7] of more than 100 µM.
In the case of `[N-]=[N+]=NCC(O)Cn1cnc2c(NC(=O)c3ccccc3)ncnc21` (stereo unspecified), the TGI is more than 100 µM in [1]; more than 100 µM in assay [2]; more than 100 µM in [3]; 76.9 µM in assay [4]; more than 100 µM in [5]; more than 100 µM in assay [6]. Also, the TGI in assay [7] is more than 100 µM.
Regarding `Cc1ccc(N=C[N-]c2ccc(C)cc2)cc1.Cc1ccc(N=C[N-]c2ccc(C)cc2)cc1.O=C([O-])C(F)(F)F.O=C([O-])C(F)(F)F.[OH3+].[OH3+].[Rh+2].[Rh+2]`, the GI50 in assay [1] was 44.7 µM; in assay [2] it was more than 100 µM; in assay [3] it was 28 µM; in assay [4], 36.3 µM; in [5] it was 16.8 µM; in [6] it was 31.9 µM. The GI50 in [7] is 23.5 µM. Further, the TGI in [1] is more than 100 µM; in assay [2], more than 100 µM; in [3], 56.1 µM; in assay [4], more than 100 µM; in assay [5], 53.9 µM; in [6], more than 100 µM. This compound also showed a TGI in assay [7] of 58.5 µM.
For `Clc1ccc(-c2c3ccc(=[N+]4CCCCC4)cc-3oc3cc(N4CCCCC4)ccc23)cc1`, the GI50 in assay [1] was 0.0909 µM; in assay [2] it was 0.145 µM; in assay [5], 0.0494 µM; in assay [8], 0.154 µM; in assay [7], 0.103 µM. The TGI turned out to be 0.229 µM in [1]; 0.323 µM in assay [2]; 0.333 µM in assay [5]; 0.31 µM in assay [8]; 0.226 µM in [7].
Take `CCC(C)CC(C)CC(C)/C=C(\C)C1=C(C)CC(C)(O)O1` (stereo unspecified): the TGI in assay [1], in [4], in assay [5], in assay [6] and in assay [7] was more than 100 µM each time.
On to `C#CC1=CC(=O)C(OC)=CC1=O`, for which the TGI was 11.3 µM in assay [1]; 34.8 µM in assay [10]; more than 100 µM in assay [2]; 55.2 µM in assay [3]; more than 100 µM in assay [4]; 18.5 µM in [5]. Besides, the TGI was 40 µM in [6], more than 100 µM in assay [9] and 20.1 µM in [7].
`C1CCCCc2nc3c(nc2CCC1)c1nc2c(nc1c1nc4c(nc31)CCCCCCCC4)CCCCCCCC2`: the TGI in [1], in [2], in assay [3], in assay [4], in assay [5] and in assay [6] was more than 100 µM in each case. This compound came in with a TGI in assay [7] of more than 100 µM.
